# Measurements reported in patent publication US20250268884A1, “Deuterated Domperidone for Treating Gastroparesis” (CinDome Pharma, Inc., priority 2022, published 2025).
# Read-outs that look alike come from different tables or passages of the source.
# What was measured:
# clinical = conditions: human, plasma, oral
# Experimental: (§1) The following PK parameters were calculated for deuterated domperidone from plasma concentrations (Day 1) using a noncompartmental method, if the data permitted: • Cmax determined directly from the concentration-time profile.
# (§2) [formula] • λz calculated from a semi-logarithmic plot of the plasma concentration versus time curve. The parameter was calculated by linear least-squares regression analysis using points in the terminal logarithmic-linear phase; • T½ calculated as natural logarithm (2)/λz; • CL/F calculated as Dose/AUC0-∞; • Vz/F calculated as Dose/(λz×AUC0-∞); • Rcmax calculated as Cmax on Day 14/Cmax on Day 1; and • RAUC calculated as AUCtau on Day 14/AUCtau on Day 1.
# [1] = system: cardiac repolarization (QTcF) in healthy subjects; conditions: human, in vivo
# [2] = for AUC% extrap / CL/F / RAUC / RCmax / λz: Day 14 (steady state), mean
# Experimental: as §1, §2
# [3] = system: adults with idiopathic or diabetic gastroparesis; test: PAGI-SYM questionnaire total and subscale scores, Phase 2a; type: in vivo, human; conditions: mean, Safety Population
# Experimental: Subjects were Evaluated as Follows: • Days −28 to −11: Screening procedures were performed. The ANMS GCSI-DD questionnaire was completed daily for at least 14 days prior to randomization (Day 1); • Days −10 to −3: The ANMS GCSI-DD questionnaire was completed daily. A GEBT was performed on a single day within this window, with breath samples obtained twice prior to consumption of a standardized, carbon-13 (^13C)-enriched meal and then at 45, 90, 120, 150, 180, and 240 minutes after meal consumption after an 8-hour fast. […] On Day 14 (±2 days), the PAGI-SYM and Clinical Grading Assessment questionnaires were completed prior to the final dose of study drug. • A GEBT was administered 30 minutes after study drug administration on Day 14 (±2 days). Breath samples were obtained twice prior to ^13C-enriched meal consumption and then at 45, 90, 120, 150, 180, and 240 minutes after meal consumption after an 8-hour fast. If a subject withdrew from the study prior to the Day 14 (±2 days) GEBT, attempts should have been made to perform a GEBT on the last day of study drug administration. Clinical Grading Assessment Scales were also performed.
# The PAGI-SYM includes 6 subscales: heartburn/regurgitation, fullness/early satiety, nausea/vomiting, bloating, upper abdominal pain, and lower abdominal pain.
smiles,measurement,setting,value
"[2H]c1c([2H])c([2H])c2c([nH]c(=O)n2CCCN2CCC(n3c(=O)[nH]c4cc(Cl)ccc43)CC2)c1[2H] [Deudomperidone, 1-{3-[4-(5-chloro-2-oxo-2,3-dihydro-1H-1,3-benzodiazol-1-yl)piperidin-1yl]propyl}-2,3-dihydro(4,5,6,7-D4)-1H-1,3-benzodiazol-2-one]",Tmax,"clinical; 5 mg, Tmax, Day 1 (single dose), 5 mg BID, median, plasma deuterated domperidone",2 h
same,Tmax,"clinical; 5 mg, Tmax, Day 14 (steady state), 5 mg BID, median, plasma deuterated domperidone",2 h
same,Tmax,"clinical; 10 mg, Tmax, Day 1 (single dose), 10 mg BID, median, plasma deuterated domperidone",2 h
same,Tmax,"clinical; 10 mg, Tmax, Day 14 (steady state), 10 mg BID, median, plasma deuterated domperidone",2 h
same,Tmax,"clinical; 20 mg, Tmax, Day 1 (single dose), 20 mg QD, median, plasma deuterated domperidone",2.5 h
same,Tmax,"clinical; 20 mg, Tmax, Day 14 (steady state), 20 mg QD, median, plasma deuterated domperidone",2 h
same,Tmax,"clinical; median Tmax, across dose groups (5 mg BID, 10 mg BID, 20 mg QD), patients with gastroparesis",2 to 2.5 h
same,"estimated slope of concentration-QTc relationship, Model B",[1],0.79 ms per ng/mL
same,plasma concentration up to which an effect on ΔΔQTcF exceeding 10 ms can be excluded,[1],~0.092 µg/mL
same,"treatment effect-specific intercept, Model B",[1],-0.03 ms
same,AUC% extrap,[2]; 5 mg BID,11.72%
same,CL/F,[2]; 5 mg BID,48.394 L/h
same,RAUC,[2]; 5 mg BID,1.653
same,RCmax,[2]; 5 mg BID,1.838
same,λz,[2]; 5 mg BID,0.0413 h⁻¹
same,AUC% extrap,[2]; 10 mg BID,9.31%
same,CL/F,[2]; 10 mg BID,69.640 L/h
same,RAUC,[2]; 10 mg BID,2.430
same,RCmax,[2]; 10 mg BID,2.179
same,λz,[2]; 10 mg BID,0.0454 h⁻¹
same,AUC% extrap,[2]; 20 mg QD,8.48%
same,CL/F,[2]; 20 mg QD,55.317 L/h
same,RAUC,[2]; 20 mg QD,2.011
same,RCmax,[2]; 20 mg QD,2.620
same,λz,[2]; 20 mg QD,0.0454 h⁻¹
same,exposure (Cmax and AUC) in patients with gastroparesis compared to that expected from healthy subjects,[2]; given dose level,approximately 2 fold
same,"PAGI-SYM bloating subscale score, Baseline",[3]; 5 mg BID,3.67
same,"PAGI-SYM bloating subscale score, Change from baseline to Day 14",[3]; 5 mg BID,−1.00
same,"PAGI-SYM bloating subscale score, Day 14",[3]; 5 mg BID,2.67
same,"PAGI-SYM bloating subscale score, Percent change from baseline to Day 14",[3]; 5 mg BID,−30.16%
same,"PAGI-SYM fullness/early satiety subscale score, Baseline",[3]; 5 mg BID,3.89
same,"PAGI-SYM fullness/early satiety subscale score, Change from baseline to Day 14",[3]; 5 mg BID,−1.53
same,"PAGI-SYM fullness/early satiety subscale score, Day 14",[3]; 5 mg BID,2.36
same,"PAGI-SYM fullness/early satiety subscale score, Percent change from baseline to Day 14",[3]; 5 mg BID,−38.04%
same,"PAGI-SYM heartburn/regurgitation subscale score, Baseline",[3]; 5 mg BID,3.63
same,"PAGI-SYM heartburn/regurgitation subscale score, Change from baseline to Day 14",[3]; 5 mg BID,−1.79
same,"PAGI-SYM heartburn/regurgitation subscale score, Day 14",[3]; 5 mg BID,1.84
same,"PAGI-SYM heartburn/regurgitation subscale score, Percent change from baseline to Day 14",[3]; 5 mg BID,−50.23%
same,"PAGI-SYM lower abdominal pain subscale score, Baseline",[3]; 5 mg BID,3.11
same,"PAGI-SYM lower abdominal pain subscale score, Change from baseline to Day 14",[3]; 5 mg BID,−1.67
same,"PAGI-SYM lower abdominal pain subscale score, Day 14",[3]; 5 mg BID,1.44
same,"PAGI-SYM lower abdominal pain subscale score, Percent change from baseline to Day 14",[3]; 5 mg BID,−52.08%
same,"PAGI-SYM nausea/vomiting subscale score, Baseline",[3]; 5 mg BID,2.74
same,"PAGI-SYM nausea/vomiting subscale score, Change from baseline to Day 14",[3]; 5 mg BID,−1.00
same,"PAGI-SYM nausea/vomiting subscale score, Day 14",[3]; 5 mg BID,1.74
same,"PAGI-SYM nausea/vomiting subscale score, Percent change from baseline to Day 14",[3]; 5 mg BID,−39.58%
same,"PAGI-SYM total score, Baseline",[3]; 5 mg BID,3.37
same,"PAGI-SYM total score, Change from baseline to Day 14",[3]; 5 mg BID,−1.35
same,"PAGI-SYM total score, Day 14",[3]; 5 mg BID,2.02
same,"PAGI-SYM total score, Percent change from baseline to Day 14",[3]; 5 mg BID,−40.13%
same,"PAGI-SYM upper abdominal pain subscale score, Baseline",[3]; 5 mg BID,3.17
same,"PAGI-SYM upper abdominal pain subscale score, Change from baseline to Day 14",[3]; 5 mg BID,−1.11
same,"PAGI-SYM upper abdominal pain subscale score, Day 14",[3]; 5 mg BID,2.06
same,"PAGI-SYM upper abdominal pain subscale score, Percent change from baseline to Day 14",[3]; 5 mg BID,−37.28%
same,"PAGI-SYM bloating subscale score, Baseline",[3]; 10 mg BID,3.84
